Source: patent publication US7595300B2, “7-quinolyl ketolide antibacterial agents” (priority 2005, dated 2009)

What was measured:
[1] = Skin penetration of topical formulations, Franz static diffusion cells; assay type: in vitro ADME, human; settings: first experiment, dibutyl sebacate
Description: The penetration of compound (III) formulated in various vehicles into human skin was determined. Franz static diffusion cells (15 mm diameter orifice, o-ring joint) were mounted on 9-cell manifolds and maintained at a constant temperature by use of re-circulating water baths set at 32° C. These cells have an opening with a nominal area of 1.77 cm^2 and a receptor compartment with a volume ranging between 12 to 14 ml. Each diffusion cell was assembled by placing a disk shaped section of excised human skin (obtained from elective surgery) over the orifice of the receptor (bottom) compartment. A Teflon® O-ring was placed on top of the skin before the donor cap was added (top compartment). This diffusion area was then secured in place by a pinch clamp, ensuring an adequate seal between the donor and receptor compartments. The joint between the donor and receptor compartments of each cell was wrapped with Parafilm® (American Can Company) to prevent evaporation of the receptor phase. Each cell was then filled with the receptor phase consisting of phosphate buffered saline with 0.1% sodium azide and 4% bovine serum albumin (w/w/w) at 32° C. Any air bubbles present under the tissue were removed prior to dosing. […]
Approximately 10 mg/cm^2 of each formulation was dosed onto the tissue surfaces of five cells. […] Samples were analyzed for drug content by LC/MS-MS. […]

[2] = tested on: male beagle dogs; assay: Cardiovascular safety in telemetered dogs, intravenous infusion; assay type: in vivo, dog
Description: Four male beagle dogs, obtained from Marshall Farms USA, Inc. (North Rose, N.Y.), were surgically instrumented with telemetry transducers (Data Sciences International, type RL11M2-D70-PCT) to assess arterial blood pressure (ABP) and lead II electrocardiogram (ECG) parameters.
The dosing route was an intravenous infusion jugular vein access). The infusion was accomplished using a CADD Prizm® ambulatory infusion pump attached to a jacket worn by the dog. The dose duration for the intravenous infusion was 30 min for all doses administered, except the last dose (30 mg/kg) where the infusion period was extended to 45 min to accommodate the larger dose volume required for this dose. The vehicle dose and diluent for the test article was 0.05-M sodium citrate in sterile water for injection.
There was one treatment group of four non-naïve dogs and the study was comprised of both pharmacokinetic and telemetry phases, as summarized in the dose administration table for compound (III) (Table 16) below. At least one week was given between dosings to allow clearance of the drug.
For the telemetry phase of the study, collection of hemodynamic and lead II ECG data commenced approximately 30 min prior to dosing and ended approximately 6 h post-dose. Systolic blood pressure (SBP), diastolic blood pressure (DBP), HR, and lead II ECG variables (PR interval, QRS duration, RR interval, and QT interval) were acquired continuously from each animal during each dose day recording session. The QT interval was corrected for variations in HR using the Fridericia's QTc interval (QTcF).
Data acquired following treatment with vehicle or compound (III) were extracted at −10, −5, 0, 10, 20, 30, 35, 45, 60, 90, 150, 270, and 390 min relative to the start dose time. For all blood pressure and ECG parameters, data following treatment with compound (III) were compared to the time-matched vehicle dose data. Statistical comparisons were made using a one-way ANOVA for repeated measures, followed by the Dunnett's post-hoc test when statistical significance was detected with the ANOVA. Changes were considered statistically significant when p<0.05.
A complete visual scan of the ECG waveforms from the vehicle, 11 mg/kg dose, and 15 mg/kg dose of compound (III) was conducted. All waveforms were examined for gross changes in waveform morphology and arrhythmogenesis.

[3] = dog, intravenous 11 and 15 mg/kg

Structure (SMILES): CC1CC(N(C)C)C(O)C(O[C@@H]2[C@@H](C)C(=O)[C@](C)(F)C(=O)O[C@H](CCF)[C@@]3(C)OC(=O)N[C@@H]3[C@@H](C)C(=O)[C@H](C)C[C@@]2(C)OC/C=C/c2ccc3cccnc3c2)O1 (some centres unmarked) [Compound (III), 6-O-(1-(7-quinolyl)-3-propenyl)-11-amino-11-deoxy-3-(descladinosyl)-3-oxo-2,15-difluoroerythromycin A-11,12-cyclic carbamate]
- Highest dermal penetration [1]: 5.7 % of applied dose
- effect on mean HR ([2]; dog, intravenous 11 mg/kg): no effect
- effect on the QRS duration ([2]; dog, intravenous 11 mg/kg): no effect
- effect on mean HR ([2]; dog, intravenous 15 mg/kg, at the 90 and 390 time points): Significant (p<0.05) decreases in mean HR
- effect on QTcF ([2]; dog, intravenous 30 mg/kg, 35 to 90 min postdose, vs time-matched vehicle): lengthening of the QTcF interval
- effect on the PR interval ([2]; dog, intravenous 30 mg/kg, 150 to 390 min, p<0.05 at 390 min): increase in the PR interval
- effect on HR ([2]; dog, intravenous 30 mg/kg, 390 min postdose): statistically significant (p<0.05) reduction in the HR
- ABP parameters (SBP, DBP, MAP) ([2]; dog, intravenous 11, 15, and 30 mg/kg, during and up to 150 min after infusion): remained relatively unchanged
- effect on the QT interval relative to the vehicle control ([2]; dog, intravenous 11, 15, or 30 mg/kg): no significant effects
- effect on QTcF [2, 3]: no significant effects
- effect on the PR interval [2, 3]: No significant effects
- waveform morphology or ECG rhythm ([2]; dog, intravenous 11 or 15 mg/kg): no abnormalities
- effect on the QRS duration ([2]; dog, intravenous 15 and 30 mg/kg, pre-drug baseline also lower): Significant (p<0.05) decreases in QRS duration
- RR interval ([2]; dog, intravenous, study period): remained relatively unchanged
- heart rate-corrected QT interval (QTc), FIG. 6 ([2]; male beagle dogs, intravenous infusion 11 mg/kg or 15.8 mg/kg over 30 minutes): No significant increase in QTc
- effect relative to vehicle ([2]; telemetered dogs, 30 mg/kg): no significant effect
- effects on cardiac parameters, including QT interval ([2]; telemetered dogs, intravenous infusion up to 15 mg/kg): no effects
